Data reported in paper PMC5218480 (PLoS ONE, 2017).

Tested on: MV-4-11 cells
Assay: Gene expression microarray analysis (Affymetrix PrimeView) and GSEA
Assay type: cell-based, human
Set-up: RFU PODN (11730768_x_at) / Fold change /veh PODN (11730768_x_at) / RFU LINC00158 (11744669_a_at) / Fold change /veh LINC00158 (11744669_a_at) / RFU DUSP10 (11751237_a_at) / Fold change /veh DUSP10 (11751237_a_at) / RFU ID3 (11757404_x_at) / Fold change /veh ID3 (11757404_x_at) / RFU PLEKHG5 (11737974_s_at) / Fold change /veh PLEKHG5 (11737974_s_at) / RFU LRRC4B (11730491_at) / Fold change /veh LRRC4B (11730491_at) / RFU GIMAP4 (11747438_a_at) / Fold change /veh GIMAP4 (11747438_a_at) / RFU KRT8 (11758183_x_at) / Fold change /veh KRT8 (11758183_x_at) / RFU CNN1 (11734310_a_at) / Fold change /veh CNN1 (11734310_a_at) / RFU VPS37D (11726825_at) / Fold change /veh VPS37D (11726825_at) / RFU C10orf10 (11716522_x_at) / Fold change /veh C10orf10 (11716522_x_at) / RFU KIR2DL2 /// KIR2DL4 /// KIR2DL5A /// KIR2DL5B /// KIR2DS1 /// KIR2DS2 /// KIR2DS3 /// KIR2DS4 /// KIR3DL3 /// KIR3DL3 /// KIR3DS1 (11738374_at) / Fold change /veh KIR2DL2 /// KIR2DL4 /// KIR2DL5A /// KIR2DL5B /// KIR2DS1 /// KIR2DS2 /// KIR2DS3 /// KIR2DS4 /// KIR3DL3 /// KIR3DL3 /// KIR3DS1 (11738374_at) / RFU C1QL1 (11718748_at) / Fold change /veh C1QL1 (11718748_at) / RFU TMPRSS4 (11747572_a_at) / Fold change /veh TMPRSS4 (11747572_a_at) / RFU HAMP (11756126_x_at) / Fold change /veh HAMP (11756126_x_at) / RFU RNFT2 (11725882_a_at) / Fold change /veh RNFT2 (11725882_a_at) / RFU NR4A2 (11747474_a_at) / Fold change /veh NR4A2 (11747474_a_at) / RFU ABCC12 (11746883_a_at) / Fold change /veh ABCC12 (11746883_a_at) / RFU TMEM136 (11760407_x_at) / Fold change /veh TMEM136 (11760407_x_at) / RFU CLDN22 /// WWC2 (11732394_at) / Fold change /veh CLDN22 /// WWC2 (11732394_at) / RFU HLA-DPB1 (11760878_x_at) / Fold change /veh HLA-DPB1 (11760878_x_at) / RFU SPINT1 (11716480_a_at) / Fold change /veh SPINT1 (11716480_a_at) / RFU GAP43 (11754022_s_at) / Fold change /veh GAP43 (11754022_s_at) / RFU A4GNT (11735810_at) / Fold change /veh A4GNT (11735810_at) / RFU PRB3 (11715151_x_at) / Fold change /veh PRB3 (11715151_x_at) / RFU TUBB4B (11761932_at) / Fold change /veh TUBB4B (11761932_at) / RFU CAPN14 (11732068_a_at) / Fold change /veh CAPN14 (11732068_a_at) / RFU TMCC2 (11721928_a_at) / Fold change /veh TMCC2 (11721928_a_at) / RFU IRGQ (11745062_a_at) / Fold change /veh IRGQ (11745062_a_at) / RFU FAM174B (11720279_a_at) / Fold change /veh FAM174B (11720279_a_at) / RFU TMPRSS4 (11748680_a_at) / Fold change /veh TMPRSS4 (11748680_a_at) / RFU FAM212B (11763350_a_at) / Fold change /veh FAM212B (11763350_a_at) / RFU PLEKHG5 (11743358_a_at) / Fold change /veh PLEKHG5 (11743358_a_at) / RFU ZSCAN30 (11745921_a_at) / Fold change /veh ZSCAN30 (11745921_a_at) / RFU CMKLR1 (11741424_a_at) / Fold change /veh CMKLR1 (11741424_a_at) / RFU LOC101060620 /// MAPK8IP1 (11723275_at) / Fold change /veh LOC101060620 /// MAPK8IP1 (11723275_at) / RFU SPTSSB (11747773_x_at) / Fold change /veh SPTSSB (11747773_x_at) / RFU PRSS12 (11739890_at) / Fold change /veh PRSS12 (11739890_at) / RFU BIN1 (11741810_x_at) / Fold change /veh BIN1 (11741810_x_at) / RFU WNT11 (11732464_a_at) / Fold change /veh WNT11 (11732464_a_at) / RFU C10orf10 (11716521_a_at) / Fold change /veh C10orf10 (11716521_a_at) / RFU C5orf56 (11738089_at) / Fold change /veh C5orf56 (11738089_at) / RFU CYB561 (11721691_x_at) / Fold change /veh CYB561 (11721691_x_at) / RFU ANKRD19P (11752326_a_at) / Fold change /veh ANKRD19P (11752326_a_at) / RFU OR2T12 /// OR2T33 /// OR2T8 (11738714_s_at) / Fold change /veh OR2T12 /// OR2T33 /// OR2T8 (11738714_s_at) / RFU VCAN (11748164_a_at) / Fold change /veh VCAN (11748164_a_at) / RFU JSRP1 (11732532_at) / Fold change /veh JSRP1 (11732532_at) / RFU KRTAP10-11 (11738290_x_at) / Fold change /veh KRTAP10-11 (11738290_x_at) / RFU MYO3A (11730013_a_at) / Fold change /veh MYO3A (11730013_a_at) / RFU EBF3 (11725865_a_at) / Fold change /veh EBF3 (11725865_a_at) / RFU CAMK2N1 (11719241_x_at) / Fold change /veh CAMK2N1 (11719241_x_at) / RFU C5orf56 (11738088_a_at) / Fold change /veh C5orf56 (11738088_a_at) / RFU OLFML3 (11715873_a_at) / Fold change /veh OLFML3 (11715873_a_at) / RFU LOC100653217 /// NTM (11731650_a_at) / Fold change /veh LOC100653217 /// NTM (11731650_a_at) / RFU MAPK11 (11762145_a_at) / Fold change /veh MAPK11 (11762145_a_at) / RFU FIZ1 (11724087_x_at) / Fold change /veh FIZ1 (11724087_x_at) / RFU OASL (11726364_x_at) / Fold change /veh OASL (11726364_x_at) / RFU SOX15 (11748057_x_at) / Fold change /veh SOX15 (11748057_x_at) / RFU CD79A (11719716_a_at) / Fold change /veh CD79A (11719716_a_at) / RFU HIST1H1D (11736915_at) / Fold change /veh HIST1H1D (11736915_at) / RFU CASKIN2 (11723855_a_at) / Fold change /veh CASKIN2 (11723855_a_at) / RFU LOC730098 (11760151_x_at) / Fold change /veh LOC730098 (11760151_x_at) / RFU OR4N2 (11742367_at) / Fold change /veh OR4N2 (11742367_at) / RFU PRRT2 (11749266_a_at) / Fold change /veh PRRT2 (11749266_a_at) / RFU SNX32 (11753110_a_at) / Fold change /veh SNX32 (11753110_a_at) / RFU CDHR5 (11726645_a_at) / Fold change /veh CDHR5 (11726645_a_at) / RFU RCAN1 (11760418_a_at) / Fold change /veh RCAN1 (11760418_a_at) / RFU FAM167A (11723789_a_at) / Fold change /veh FAM167A (11723789_a_at) / RFU FAM26E (11764081_at) / Fold change /veh FAM26E (11764081_at) / RFU ISYNA1 (11749810_s_at) / Fold change /veh ISYNA1 (11749810_s_at) / RFU ACY1 (11761880_at) / Fold change /veh ACY1 (11761880_at) / RFU 11764098_at / Fold change /veh 11764098_at / RFU SAMD14 (11745864_x_at) / Fold change /veh SAMD14 (11745864_x_at) / RFU NPB (11741838_a_at) / Fold change /veh NPB (11741838_a_at) / RFU TMPRSS6 (11731388_a_at) / Fold change /veh TMPRSS6 (11731388_a_at) / RFU KRTAP10-2 (11738614_at) / Fold change /veh KRTAP10-2 (11738614_at) / RFU ARHGAP8 /// PRR5-ARHGAP8 (11727945_x_at) / Fold change /veh ARHGAP8 /// PRR5-ARHGAP8 (11727945_x_at) / RFU KRTAP5-7 /// NADSYN1 (11734609_at) / Fold change /veh KRTAP5-7 /// NADSYN1 (11734609_at) / RFU RASL12 (11751679_a_at) / Fold change /veh RASL12 (11751679_a_at) / RFU CDKN2B (11736163_a_at) / Fold change /veh CDKN2B (11736163_a_at) / RFU PRF1 (11729649_at) / Fold change /veh PRF1 (11729649_at) / RFU, ZNF638 /// ZNF638-IT1 / Fold change vs veh, ZNF638 /// ZNF638-IT1 / RFU, PANK3 / Fold change vs veh, PANK3 / RFU, SH3YL1 / Fold change vs veh, SH3YL1 / RFU, ZEB2 / Fold change vs veh, ZEB2 / RFU, NRIP1 / Fold change vs veh, NRIP1 / RFU, PTTG1IP / Fold change vs veh, PTTG1IP / RFU, CAPN2 / Fold change vs veh, CAPN2 / RFU, MED14 / Fold change vs veh, MED14 / RFU, SNORA58 / Fold change vs veh, SNORA58 / RFU, C1orf63 / Fold change vs veh, C1orf63 / RFU, LRRFIP1 / Fold change vs veh, LRRFIP1 / RFU, NDUFAF7 / Fold change vs veh, NDUFAF7 / RFU, SLC12A2 / Fold change vs veh, SLC12A2 / RFU, IBTK / Fold change vs veh, IBTK / RFU, ESF1 / Fold change vs veh, ESF1 / Fold change vs veh, TMEM50B / RFU, TAOK1 / Fold change vs veh, TAOK1 / RFU, ACBD3 / Fold change vs veh, ACBD3 / RFU, TMA16 / Fold change vs veh, TMA16 / RFU, RWDD3 / Fold change vs veh, RWDD3 / RFU, BCAT1 / Fold change vs veh, BCAT1 / RFU, EDEM3 / Fold change vs veh, EDEM3 / RFU, TMEM33 / Fold change vs veh, TMEM33 / RFU, WDR75 / Fold change vs veh, WDR75 / RFU, AHCTF1 / Fold change vs veh, AHCTF1 / RFU, TFRC / Fold change vs veh, TFRC / RFU, ZDHHC17 / Fold change vs veh, ZDHHC17 / RFU, NOM1 / Fold change vs veh, NOM1 / RFU, ARL8B / Fold change vs veh, ARL8B / RFU, ZBTB11 / Fold change vs veh, ZBTB11 / RFU, TAMM41 / Fold change vs veh, TAMM41 / RFU, KIAA1704 /// LOC100996395 / Fold change vs veh, KIAA1704 /// LOC100996395 / RFU, ING1 / Fold change vs veh, ING1 / RFU, TRMT61B / Fold change vs veh, TRMT61B / RFU, FUBP3 / Fold change vs veh, FUBP3 / RFU, TP53 / Fold change vs veh, TP53 / RFU, TNKS2 / Fold change vs veh, TNKS2 / RFU, ZFP14 / Fold change vs veh, ZFP14 / RFU, ACTR2 / Fold change vs veh, ACTR2 / RFU, PPP3R1 / Fold change vs veh, PPP3R1 / RFU, PIK3R1 / Fold change vs veh, PIK3R1 / RFU, HNRNPA1 / Fold change vs veh, HNRNPA1 / RFU, RNF170 / Fold change vs veh, RNF170 / RFU, ZNF28 / Fold change vs veh, ZNF28 / RFU, RNGTT / Fold change vs veh, RNGTT / RFU, OGT / Fold change vs veh, OGT / RFU, BRD1 / Fold change vs veh, BRD1 / RFU, MARS / Fold change vs veh, MARS / RFU, ZNF655 / Fold change vs veh, ZNF655 / RFU, FAHD1 / Fold change vs veh, FAHD1 / RFU, BDP1 / Fold change vs veh, BDP1 / RFU, LRRCC1 / Fold change vs veh, LRRCC1 / RFU, ARID1A / Fold change vs veh, ARID1A / RFU, ZNF146 / Fold change vs veh, ZNF146 / RFU, ZNF330 / Fold change vs veh, ZNF330 / RFU, GPN3 / Fold change vs veh, GPN3 / RFU, C9orf123 / Fold change vs veh, C9orf123 / RFU, N4BP2L2 / Fold change vs veh, N4BP2L2 / RFU, ARFIP1 / Fold change vs veh, ARFIP1 / RFU, FAM179B / Fold change vs veh, FAM179B / RFU, BCL10 / Fold change vs veh, BCL10 / RFU, UHRF1BP1L / Fold change vs veh, UHRF1BP1L / RFU, BET1 / Fold change vs veh, BET1 / RFU, CNOT2 / Fold change vs veh, CNOT2 / RFU, ZNF268 / Fold change vs veh, ZNF268 / Fold change vs veh, ZNF507 / RFU, DGCR2 / Fold change vs veh, DGCR2 / RFU, WDSUB1 / Fold change vs veh, WDSUB1 / Fold change vs veh, HSP90B1 /// MIR3652 / RFU, ADSS / Fold change vs veh, ADSS / RFU, GK / Fold change vs veh, GK / RFU, ZNF148 / Fold change vs veh, ZNF148 / RFU, TAF9 / Fold change vs veh, TAF9 / RFU, SLC1A5 / Fold change vs veh, SLC1A5 / RFU, SLMO2 / Fold change vs veh, SLMO2 / RFU, ABCC4 / Fold change vs veh, ABCC4 / RFU, LOC101060439 /// RAP1B / Fold change vs veh, LOC101060439 /// RAP1B / RFU, RFX7 / Fold change vs veh, RFX7 / RFU, GTPBP10 / Fold change vs veh, GTPBP10 / RFU, CNEP1R1 / Fold change vs veh, CNEP1R1 / RFU, BIVM-ERCC5 /// ERCC5 / Fold change vs veh, BIVM-ERCC5 /// ERCC5 / RFU, ILF3 / Fold change vs veh, ILF3 / RFU 11762660_at / Fold change /veh 11762660_at / RFU VCAN (11757783_s_at) / Fold change /veh VCAN (11757783_s_at) / RFU DDX43 (11728927_at) / Fold change /veh DDX43 (11728927_at) / RFU KRT8 (11758188_x_at) / Fold change /veh KRT8 (11758188_x_at) / RFU NKD1 (11759106_at) / Fold change /veh NKD1 (11759106_at) / RFU SRD5A1 (11742802_a_at) / Fold change /veh SRD5A1 (11742802_a_at) / RFU TPSAB1 /// TPSB2 (11721975_s_at) / Fold change /veh TPSAB1 /// TPSB2 (11721975_s_at) / RFU GSTM3 (11746129_a_at) / Fold change /veh GSTM3 (11746129_a_at) / RFU IL23R (11737362_x_at) / Fold change /veh IL23R (11737362_x_at) / RFU TMEM51 (11727254_a_at) / Fold change /veh TMEM51 (11727254_a_at) / RFU PIWIL2 (11732686_x_at) / Fold change /veh PIWIL2 (11732686_x_at) / RFU ORM1 (11744905_x_at) / Fold change /veh ORM1 (11744905_x_at) / RFU CCDC152 (11743942_at) / Fold change /veh CCDC152 (11743942_at) / RFU ECM1 (11717891_a_at) / Fold change /veh ECM1 (11717891_a_at) / RFU IL23R (11748794_a_at) / Fold change /veh IL23R (11748794_a_at) / RFU TNFAIP8L3 (11732012_x_at) / Fold change /veh TNFAIP8L3 (11732012_x_at) / RFU MBOAT4 (11741988_at) / Fold change /veh MBOAT4 (11741988_at) / RFU 11764193_at / Fold change /veh 11764193_at / RFU TMEM53 (11763286_at) / Fold change /veh TMEM53 (11763286_at) / RFU MAGEB2 (11727129_at) / Fold change /veh MAGEB2 (11727129_at) / RFU TMEM200A (11744735_a_at) / Fold change /veh TMEM200A (11744735_a_at) / RFU CCDC152 (11751479_a_at) / Fold change /veh CCDC152 (11751479_a_at) / RFU FAM211A (11726209_a_at) / Fold change /veh FAM211A (11726209_a_at) / RFU RGS16 (11746705_a_at) / Fold change /veh RGS16 (11746705_a_at) / RFU VCAN (11755009_s_at) / Fold change /veh VCAN (11755009_s_at) / RFU RHOB (11743442_s_at) / Fold change /veh RHOB (11743442_s_at) / RFU RGS16 (11720943_a_at) / Fold change /veh RGS16 (11720943_a_at) / RFU RGS16 (11720944_at) / Fold change /veh RGS16 (11720944_at) / RFU, VPS4B / Fold change vs veh, VPS4B / RFU, CREB1 / Fold change vs veh, CREB1 / RFU, DNAJC13 / Fold change vs veh, DNAJC13 / RFU, GNAQ / Fold change vs veh, GNAQ / RFU, CDK5R1 / Fold change vs veh, CDK5R1 / RFU, ZRANB3 / Fold change vs veh, ZRANB3 / RFU, CUL4A / Fold change vs veh, CUL4A / RFU, CCNY / Fold change vs veh, CCNY / RFU, UFL1 / Fold change vs veh, UFL1 / RFU, COG3 / Fold change vs veh, COG3 / RFU, DIAPH2 / Fold change vs veh, DIAPH2 / RFU, SKA2 / Fold change vs veh, SKA2 / RFU, AFF3 / Fold change vs veh, AFF3 / RFU, LMF1 / Fold change vs veh, LMF1 / RFU, IPO11 / Fold change vs veh, IPO11 / RFU, DFFB / Fold change vs veh, DFFB / RFU, FOXP1 / Fold change vs veh, FOXP1 / RFU, CARD8 / Fold change vs veh, CARD8 / RFU, STRN3 / Fold change vs veh, STRN3 / RFU, ADK / Fold change vs veh, ADK / RFU, RASSF2 / Fold change vs veh, RASSF2 / RFU, WIPF1 / Fold change vs veh, WIPF1 / RFU, LARP1B / Fold change vs veh, LARP1B / RFU, RASA1 / Fold change vs veh, RASA1 / RFU, RB1 / Fold change vs veh, RB1 / RFU, PPFIA1 / Fold change vs veh, PPFIA1 / RFU, MAT2A / Fold change vs veh, MAT2A / RFU, CCT5 / Fold change vs veh, CCT5 / RFU, WDR92 / Fold change vs veh, WDR92 / RFU, CUX1 / Fold change vs veh, CUX1 / RFU, TTC7A / Fold change vs veh, TTC7A / RFU, TMEM135 / Fold change vs veh, TMEM135 / RFU, DEPTOR / Fold change vs veh, DEPTOR / RFU, CPM / Fold change vs veh, CPM / RFU, DNAJB6 / Fold change vs veh, DNAJB6 / RFU, CACNA2D3 / Fold change vs veh, CACNA2D3 / RFU, DTX4 / Fold change vs veh, DTX4 / RFU, TFCP2 / Fold change vs veh, TFCP2 / RFU, GMCL1 /// GMCL1P1 / Fold change vs veh, GMCL1 /// GMCL1P1 / RFU, AEBP2 / Fold change vs veh, AEBP2 / RFU, SNHG1 /// SNORD22 /// SNORD25 /// SNORD26 /// SNORD27 /// SNORD28 /// SNORD29 /// SNORD31 / Fold change vs veh, SNHG1 /// SNORD22 /// SNORD25 /// SNORD26 /// SNORD27 /// SNORD28 /// SNORD29 /// SNORD31 / Fold change (Aza/veh), C12orf56 (ProbeSet 11735607_a_at) / Fold change (ACY-1035/veh), C12orf56 (ProbeSet 11735607_a_at) / Fold change (Aza/veh), FGFR1OP (ProbeSet 11751329_s_at) / Fold change (ACY-1035/veh), FGFR1OP (ProbeSet 11751329_s_at) / Fold change (Aza/veh), VPS36 (ProbeSet 11739960_a_at) / Fold change (ACY-1035/veh), VPS36 (ProbeSet 11739960_a_at) / RFU SYPL1 (11715823_x_at) / Fold change /veh SYPL1 (11715823_x_at) / RFU IGFBP7 (11715501_s_at) / Fold change /veh IGFBP7 (11715501_s_at) / RFU REEP3 (11722064_at) / Fold change /veh REEP3 (11722064_at) / RFU IGLL1 (11728026_x_at) / Fold change /veh IGLL1 (11728026_x_at): dose or concentration left out as unconfirmed
Conditions: ProbeSet 11758397_s_at; LIST B

Q: Which “Fold change vs veh, RNF170” value does the source give for Nc1ccc(-c2cccs2)cc1NC(=O)c1ccc2c(c1)cc(C1CC1)n2CCN1CCOCC1 [ACY-1035] here?
A: Its value is 0.96.
